From patent publication US4292317A, “1,4-Dihydro-quinoline-3-carboxylic acid derivatives, process for their preparation and compositions containing them” (Laboratorie Roger Bellon, priority 1977, dated 1981)
Values after ≈ are worked out from the molar mass of the structure shown. Like-named read-outs stand apart in the source and are kept apart here.

Tests used:
Format in all cases: cell-based
Arizona 6.211 = assay: M.I.C. in vitro, nutrient agar dilution; settings: 18 h, read-out: M.I.C.
Procedure: (§1) After sterilisation at 120° C., the pH was 6.8.
(§2) The minimum inhibitory concentrations (M.I.C.) were determined by dilution of the test compounds in this mixture, the concentration ranging from 0.05 to 100 μg/cm^3 in a geometric progression with a factor of 2.
(§3) The inoculation of the dishes was carried out by means of a multiple inoculator with 10^-3 dilutions of 18 hour old broth cultures.
(§4) The dishes were placed in an oven at 37° C. and the readings were taken afer an incubation time of 18 hours. The M.I.C. was taken as the lowest concentration which inhibited a culture.

B. subtilis = assay: M.I.C. in vitro, nutrient agar dilution; settings: Bacillus subtilis, 18 h, read-out: M.I.C.
Procedure: as §1, §2, §3, §4

Bord. bronchis. 4.617 = assay: M.I.C. in vitro, nutrient agar dilution; settings: 18 h, read-out: M.I.C.
Procedure: as §1, §2, §3, §4

Esch. coli 111 B4 = assay: M.I.C. in vitro, nutrient agar dilution; settings: Escherichia coli, 18 h
Procedure: as §1, §2, §3, §4

Esch. coli 54.127 O.M.S. = assay: M.I.C. in vitro, nutrient agar dilution; settings: Escherichia coli, 18 h, read-out: M.I.C.
Procedure: as §1, §2, §3, §4

Esch. coli 95 I.S.M. = assay: M.I.C. in vitro, nutrient agar dilution; settings: Escherichia coli, 18 h, read-out: M.I.C.
Procedure: as §1, §2, §3, §4

Klebs. pneum. 10.031 = assay: M.I.C. in vitro, nutrient agar dilution; settings: 18 h, read-out: M.I.C.
Procedure: as §1, §2, §3, §4

Pr. mirabilis Nig = assay: M.I.C. in vitro, nutrient agar dilution; settings: Proteus mirabilis, 18 h, read-out: M.I.C.
Procedure: as §1, §2, §3, §4

Pr. morganii A.236 = assay: M.I.C. in vitro, nutrient agar dilution; settings: Morganella morganii, 18 h, read-out: M.I.C.
Procedure: as §1, §2, §3, §4

Pr. vulgaris 12-53 = assay: M.I.C. in vitro, nutrient agar dilution; settings: Proteus vulgaris, 1253, 18 h, read-out: M.I.C.
Procedure: as §1, §2, §3, §4

Providentia 0223 = assay: M.I.C. in vitro, nutrient agar dilution; settings: 18 h, read-out: M.I.C.
Procedure: as §1, §2, §3, §4

Ps. aeruginosa 72.345 = assay: M.I.C. in vitro, nutrient agar dilution; settings: Pseudomonas aeruginosa, 18 h, read-out: M.I.C.
Procedure: as §1, §2, §3, §4

Ps. aeruginosa A.22 = assay: M.I.C. in vitro, nutrient agar dilution; settings: Pseudomonas aeruginosa, 18 h, read-out: M.I.C.
Procedure: as §1, §2, §3, §4

S. enteritidis Danysz = assay: M.I.C. in vitro, nutrient agar dilution; settings: Salmonella enterica, 18 h, read-out: M.I.C.
Procedure: as §1, §2, §3, §4

S. oranienburg 1066 = assay: M.I.C. in vitro, nutrient agar dilution; settings: Salmonella enterica, 18 h, read-out: M.I.C.
Procedure: as §1, §2, §3, §4

Serratia = assay: M.I.C. in vitro, nutrient agar dilution; settings: 18 h, read-out: M.I.C.
Procedure: as §1, §2, §3, §4

Sh. sonnei I.P.S. = assay: M.I.C. in vitro, nutrient agar dilution; settings: Shigella sonnei, 18 h, read-out: M.I.C.
Procedure: as §1, §2, §3, §4

Staph. 209 P = assay: M.I.C. in vitro, nutrient agar dilution; settings: 18 h, read-out: M.I.C.
Procedure: as §1, §2, §3, §4

Staph. 9.144 = assay: M.I.C. in vitro, nutrient agar dilution; settings: 18 h, read-out: M.I.C.
Procedure: as §1, §2, §3, §4

Strepto A 561 = assay: M.I.C. in vitro, nutrient agar dilution; settings: 18 h
Procedure: as §1, §2, §3, §4

Strepto D.M. 19 = assay: M.I.C. in vitro, nutrient agar dilution; settings: 18 h, read-out: M.I.C.
Procedure: as §1, §2, §3, §4

Salm. typhi 0901 = assay: microbe, parasite or virus in culture; settings: Salmonella enterica, 18 h
Procedure: as §1, §2, §3, §4

[1] = Table 2, Arizona 6.211 (Gram negative)
[2] = Table 2, B. subtilis (Gram positive)
[3] = Table 2, Bord. bronchis. 4.617 (Gram negative)
[4] = Table 2, Esch. coli 111 B4 (Gram negative)
[5] = Table 2, Esch. coli 54.127 O.M.S. (Gram negative)
[6] = Table 2, Esch. coli 95 I.S.M. (Gram negative)
[7] = Table 2, Klebs. pneum. 10.031 (Gram negative)
[8] = Table 2, Pr. mirabilis Nig (Gram negative)
[9] = Table 2, Pr. morganii A.236 (Gram negative)
[10] = Table 2, Pr. vulgaris 12-53 (Gram negative)
[11] = Table 2, Providentia 0223 (Gram negative)
[12] = Table 2, Ps. aeruginosa 72.345 (Gram negative)
[13] = Table 2, Ps. aeruginosa A.22 (Gram negative)
[14] = Table 2, S. enteritidis Danysz (Gram negative)
[15] = Table 2, S. oranienburg 1066 (Gram negative)
[16] = Table 2, Berratia (Gram negative)
[17] = Table 2, Sh. sonnei I.P.S. (Gram negative)
[18] = Table 2, Staph. 209 P (Gram positive)
[19] = Table 2, Staph. 9.144 (Gram positive)
[20] = Table 2, Strepto A 561 (Gram positive)
[21] = Table 2, Strepto D.M. 19 (Gram positive)
[22] = Table 2, Salm. typhi 0901 (Gram negative)

C=Cn1cc(C(=O)O)c(=O)c2cc(F)c(N3CCOCC3)cc21 [Example 42, 6-Fluoro-7-morpholino-4-oxo-1-vinyl-1,4-dihydro-quinoline-3-carboxylic acid]
MIC (Arizona 6.211; Table III, Arizona 6.211): 0.8 µg/mL (≈ 2.51 µM)
MIC (B. subtilis; Table III, B. Subtilis): 0.2 µg/mL (≈ 0.628 µM)
MIC (Bord. bronchis. 4.617; Table III, Bord. bronchis. 4.617): 12.5 µg/mL (≈ 39.3 µM)
MIC (Esch. coli 111 B4; Table III, Esch. coli 111 B4): 0.8 µg/mL (≈ 2.51 µM)
MIC (Esch. coli 54.127 O.M.S.; Table III, Esch. coli 54.127 O.M.S.): 0.8 µg/mL (≈ 2.51 µM)
MIC (Esch. coli 95 I.S.M.; Table III, Esch. coli 95 I.S.M.): 0.8 µg/mL (≈ 2.51 µM)
MIC (Klebs. pneum. 10.031; Table III, Klebs. pneum. 10.031): 0.8 µg/mL (≈ 2.51 µM)
MIC (Pr. mirabilis Nig; Table III, Pr. mirabilis Nig): 1.6 µg/mL (≈ 5.03 µM)
MIC (Pr. morganii A.236; Table III, Pr. morganii A. 236): 0.2 µg/mL (≈ 0.628 µM)
MIC (Pr. vulgaris 12-53; Table III, Pr. vulgaris 12-53): 0.8 µg/mL (≈ 2.51 µM)
MIC (Providentia 0223; Table III, Providentia 0223): 25 µg/mL (≈ 78.5 µM)
MIC (Ps. aeruginosa 72.345; Table III, Pd. aeruginosa 72.345): 6.2 µg/mL (≈ 19.5 µM)
MIC (Ps. aeruginosa A.22; Table III, Ps. aeruginosa A.22): 3.1 µg/mL (≈ 9.74 µM)
MIC (S. enteritidis Danysz; Table III, S. enteritidis Danysz): 1.6 µg/mL (≈ 5.03 µM)
MIC (S. oranienburg 1066; Table III, S. oranienburg 1066): 100 µg/mL (≈ 314 µM)
MIC (Serratia; Table III): 3.1 µg/mL (≈ 9.74 µM)
MIC (Sh. sonnei I.P.S.; Table III, Sh. sonnei I.P.S.): 0.8 µg/mL (≈ 2.51 µM)
MIC (Staph. 209 P; Table III, Staph. 209 P): 0.8 µg/mL (≈ 2.51 µM)
MIC (Staph. 9.144; Table III, Staph. 9.144): 1.6 µg/mL (≈ 5.03 µM)
MIC (Strepto A 561; Table III, Strepto A 561): 25 µg/mL (≈ 78.5 µM)
MIC (Strepto D.M. 19; Table III, Strepto D.M. 19): 12.5 µg/mL (≈ 39.3 µM)
MIC (Salm. typhi 0901; Table III, Salm. typhi 0901): 0.8 µg/mL (≈ 2.51 µM)

CCn1cc(C(=O)O)c(=O)c2ccc(N3CCN(C)CC3)cc21 [Example T1, 1-ethyl-7-(4-methylpiperazinyl)-4-oxo-1,4-dihydro-quinoline-3-carboxylic acid, reference compound]
MIC (Arizona 6.211; [1]): 1.6 µg/mL (≈ 5.07 µM)
MIC (B. subtilis; [2]): 1.6 µg/mL (≈ 5.07 µM)
MIC (Bord. bronchis. 4.617; [3]): 25 µg/mL (≈ 79.3 µM)
MIC (Esch. coli 111 B4; [4]): 1.6 µg/mL (≈ 5.07 µM)
MIC (Esch. coli 54.127 O.M.S.; [5]): 1.6 µg/mL (≈ 5.07 µM)
MIC (Esch. coli 95 I.S.M.; [6]): 0.8 µg/mL (≈ 2.54 µM)
MIC (Klebs. pneum. 10.031; [7]): 0.8 µg/mL (≈ 2.54 µM)
MIC (Pr. mirabilis Nig; [8]): 3.1 µg/mL (≈ 9.83 µM)
MIC (Pr. morganii A.236; [9]): 0.8 µg/mL (≈ 2.54 µM)
MIC (Pr. vulgaris 12-53; [10]): 3.1 µg/mL (≈ 9.83 µM)
MIC (Providentia 0223; [11]): 100 µg/mL (≈ 317 µM)
MIC (Ps. aeruginosa 72.345; [12]): 12.5 µg/mL (≈ 39.6 µM)
MIC (Ps. aeruginosa A.22; [13]): 12.5 µg/mL (≈ 39.6 µM)
MIC (S. enteritidis Danysz; [14]): 3.1 µg/mL (≈ 9.83 µM)
MIC (S. oranienburg 1066; [15]): > 100 µg/mL
MIC (Serratia; [16]): 12.5 µg/mL (≈ 39.6 µM)
MIC (Sh. sonnei I.P.S.; [17]): 1.6 µg/mL (≈ 5.07 µM)
MIC (Staph. 209 P; [18]): 3.1 µg/mL (≈ 9.83 µM)
MIC (Staph. 9.144; [19]): 6.2 µg/mL (≈ 19.7 µM)
MIC (Strepto A 561; [20]): 50 µg/mL (≈ 159 µM)
MIC (Strepto D.M. 19; [21]): 50 µg/mL (≈ 159 µM)
MIC (Salm. typhi 0901; [22]): 3.1 µg/mL (≈ 9.83 µM)

CCn1cc(C(=O)O)c(=O)c2ccc(N3CCN(CCO)CC3)cc21 [Example T4, reference compound]
MIC (Arizona 6.211; [1]): 12.5 µg/mL (≈ 36.2 µM)
MIC (B. subtilis; [2]): 3.1 µg/mL (≈ 8.98 µM)
MIC (Bord. bronchis. 4.617; [3]): 100 µg/mL (≈ 290 µM)
MIC (Esch. coli 111 B4; [4]): 6.2 µg/mL (≈ 18 µM)
MIC (Esch. coli 54.127 O.M.S.; [5]): 6.2 µg/mL (≈ 18 µM)
MIC (Esch. coli 95 I.S.M.; [6]): 6.2 µg/mL (≈ 18 µM)
MIC (Klebs. pneum. 10.031; [7]): 3.1 µg/mL (≈ 8.98 µM)
MIC (Pr. mirabilis Nig; [8]): 50 µg/mL (≈ 145 µM)
MIC (Pr. morganii A.236; [9]): 3.1 µg/mL (≈ 8.98 µM)
MIC (Pr. vulgaris 12-53; [10]): 25 µg/mL (≈ 72.4 µM)
MIC (Providentia 0223; [11]): > 100 µg/mL
MIC (Ps. aeruginosa 72.345; [12]): 100 µg/mL (≈ 290 µM)
MIC (Ps. aeruginosa A.22; [13]): 100 µg/mL (≈ 290 µM)
MIC (S. enteritidis Danysz; [14]): 12.5 µg/mL (≈ 36.2 µM)
MIC (S. oranienburg 1066; [15]): > 100 µg/mL
MIC (Serratia; [16]): > 100 µg/mL
MIC (Sh. sonnei I.P.S.; [17]): 6.2 µg/mL (≈ 18 µM)
MIC (Staph. 209 P; [18]): 6.2 µg/mL (≈ 18 µM)
MIC (Staph. 9.144; [19]): 3.1 µg/mL (≈ 8.98 µM)
MIC (Strepto A 561; [20]): > 100 µg/mL
MIC (Strepto D.M. 19; [21]): 100 µg/mL (≈ 290 µM)
MIC (Salm. typhi 0901; [22]): 25 µg/mL (≈ 72.4 µM)
